Changes are numbered by the printed parent chain. Positions of bridges follow the written chain, without caps; N, C: chain ends. Residues, ends and D or L forms follow the SMILES beside them.
What was measured:
rKv4.2 N282A = target: T1, rKv4.2 N282A (Rattus norvegicus, UniProt Q63881, N282A); assay: cell-based; details: mean ± SEM
T1 construct: expressed in transfected cells; host or cells: HEK293T
T1 sequence (Q63881 1-630 N282A): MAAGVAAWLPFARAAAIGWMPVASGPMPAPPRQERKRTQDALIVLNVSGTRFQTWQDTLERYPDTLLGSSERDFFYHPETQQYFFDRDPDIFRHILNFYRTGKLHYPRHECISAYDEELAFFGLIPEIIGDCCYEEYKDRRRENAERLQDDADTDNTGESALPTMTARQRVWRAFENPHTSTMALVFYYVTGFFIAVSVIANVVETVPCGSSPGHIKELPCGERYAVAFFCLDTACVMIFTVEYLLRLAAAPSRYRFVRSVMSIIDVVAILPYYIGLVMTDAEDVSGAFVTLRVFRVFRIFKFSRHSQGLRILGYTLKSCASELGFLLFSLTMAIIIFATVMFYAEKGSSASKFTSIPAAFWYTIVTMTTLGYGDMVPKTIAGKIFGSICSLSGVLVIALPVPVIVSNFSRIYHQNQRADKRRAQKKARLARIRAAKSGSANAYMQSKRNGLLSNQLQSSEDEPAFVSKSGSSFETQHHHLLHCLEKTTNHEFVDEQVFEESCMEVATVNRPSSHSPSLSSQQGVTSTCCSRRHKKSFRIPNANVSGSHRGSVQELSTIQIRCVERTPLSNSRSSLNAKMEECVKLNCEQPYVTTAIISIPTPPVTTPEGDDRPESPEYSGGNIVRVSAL

rKv4.2 D281K = target: T2, rKv4.2 D281K (Rattus norvegicus, UniProt Q63881, D281K); assay: cell-based; details: mean ± SEM
T2 construct: expressed in transfected cells; host or cells: HEK293T
T2 sequence (Q63881 1-630 D281K): T1 sequence (Q63881 1-630 N282A) with D281K, A282N

hNav1.7 = target: T3, hNav1.7 (Homo sapiens, UniProt Q15858); assay: cell-based; details: whole-cell patch clamp, HEK293T, hNav1.7 with β1 and β2; held at -90 mV, step to 0 mV; mean ± S.E.M., n = 3-7; SEM; read-out: IC50 for hNav1.7
T3 construct: expressed in transfected cells; host or cells: HEK293T
T3 sequence (O60939 30-215): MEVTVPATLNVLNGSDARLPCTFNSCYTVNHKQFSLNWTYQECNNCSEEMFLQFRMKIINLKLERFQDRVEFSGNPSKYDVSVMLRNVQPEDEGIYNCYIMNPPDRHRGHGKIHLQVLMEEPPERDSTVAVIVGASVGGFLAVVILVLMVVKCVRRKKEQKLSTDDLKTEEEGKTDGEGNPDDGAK
T3 sequence (Q15858 other isoform, or with tags, fused parts or gaps): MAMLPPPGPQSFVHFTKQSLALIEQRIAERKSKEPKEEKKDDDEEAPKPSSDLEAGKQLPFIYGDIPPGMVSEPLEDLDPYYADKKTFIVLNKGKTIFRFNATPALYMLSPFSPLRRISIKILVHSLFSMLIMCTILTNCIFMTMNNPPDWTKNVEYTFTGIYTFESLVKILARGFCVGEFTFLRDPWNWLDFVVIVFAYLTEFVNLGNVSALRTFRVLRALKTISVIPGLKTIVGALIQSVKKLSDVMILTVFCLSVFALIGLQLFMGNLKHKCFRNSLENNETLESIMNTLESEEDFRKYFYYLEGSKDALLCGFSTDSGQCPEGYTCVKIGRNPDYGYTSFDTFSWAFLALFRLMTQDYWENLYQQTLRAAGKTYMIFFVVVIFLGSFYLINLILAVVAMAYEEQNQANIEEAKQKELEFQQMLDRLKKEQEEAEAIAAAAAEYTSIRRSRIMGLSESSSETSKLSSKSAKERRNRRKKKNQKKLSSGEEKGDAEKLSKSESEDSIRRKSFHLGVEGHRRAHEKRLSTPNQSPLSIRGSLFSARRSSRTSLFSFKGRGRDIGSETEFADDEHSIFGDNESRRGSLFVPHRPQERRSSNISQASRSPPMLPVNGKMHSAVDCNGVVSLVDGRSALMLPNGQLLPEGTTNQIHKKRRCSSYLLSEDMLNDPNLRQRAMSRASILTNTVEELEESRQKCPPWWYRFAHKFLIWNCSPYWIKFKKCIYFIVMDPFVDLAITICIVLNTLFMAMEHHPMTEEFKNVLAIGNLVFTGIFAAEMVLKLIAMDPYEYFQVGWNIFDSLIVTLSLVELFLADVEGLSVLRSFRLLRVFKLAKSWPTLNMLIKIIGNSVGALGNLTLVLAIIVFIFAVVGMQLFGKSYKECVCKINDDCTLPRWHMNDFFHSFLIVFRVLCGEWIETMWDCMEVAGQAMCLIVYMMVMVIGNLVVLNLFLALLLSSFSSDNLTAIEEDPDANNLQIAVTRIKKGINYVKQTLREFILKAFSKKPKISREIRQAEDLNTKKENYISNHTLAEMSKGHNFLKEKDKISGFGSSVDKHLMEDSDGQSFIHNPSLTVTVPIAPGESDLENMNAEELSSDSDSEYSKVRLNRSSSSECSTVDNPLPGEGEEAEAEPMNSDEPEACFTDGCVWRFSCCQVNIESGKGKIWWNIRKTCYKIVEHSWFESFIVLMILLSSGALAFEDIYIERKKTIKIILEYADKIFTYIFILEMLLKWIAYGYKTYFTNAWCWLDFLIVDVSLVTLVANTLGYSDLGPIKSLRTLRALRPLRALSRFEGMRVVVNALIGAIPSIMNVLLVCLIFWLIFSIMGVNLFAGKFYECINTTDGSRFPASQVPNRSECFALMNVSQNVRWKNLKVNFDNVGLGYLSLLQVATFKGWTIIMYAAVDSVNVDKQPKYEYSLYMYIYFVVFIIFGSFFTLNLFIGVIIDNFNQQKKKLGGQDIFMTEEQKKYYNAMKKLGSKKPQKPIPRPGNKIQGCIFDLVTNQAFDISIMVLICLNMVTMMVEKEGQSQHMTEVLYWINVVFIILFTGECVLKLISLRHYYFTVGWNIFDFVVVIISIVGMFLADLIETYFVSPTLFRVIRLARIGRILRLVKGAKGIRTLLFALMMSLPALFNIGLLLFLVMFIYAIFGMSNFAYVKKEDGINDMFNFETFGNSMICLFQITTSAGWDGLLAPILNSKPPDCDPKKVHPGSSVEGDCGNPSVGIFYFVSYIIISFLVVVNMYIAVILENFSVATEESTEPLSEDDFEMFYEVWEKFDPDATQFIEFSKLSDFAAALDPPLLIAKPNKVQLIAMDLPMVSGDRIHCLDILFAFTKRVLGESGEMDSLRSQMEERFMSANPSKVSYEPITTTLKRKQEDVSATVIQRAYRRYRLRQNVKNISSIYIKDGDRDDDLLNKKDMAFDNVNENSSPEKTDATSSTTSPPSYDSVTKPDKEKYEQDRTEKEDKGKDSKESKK
T3 sequence (Q07699 19-218, further chain): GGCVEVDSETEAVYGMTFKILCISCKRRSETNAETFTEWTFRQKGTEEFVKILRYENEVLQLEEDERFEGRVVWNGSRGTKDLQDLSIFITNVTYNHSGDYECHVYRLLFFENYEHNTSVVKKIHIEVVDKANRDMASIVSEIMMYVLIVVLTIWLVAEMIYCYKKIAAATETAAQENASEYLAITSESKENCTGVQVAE

rKv4.2 E283K = target: T4, rKv4.2 E283K (Rattus norvegicus, UniProt Q63881, E283K); assay: cell-based; details: mean ± SEM
T4 construct: expressed in transfected cells; host or cells: HEK293T
T4 sequence (Q63881 1-630 E283K): T1 sequence (Q63881 1-630 N282A) with A282N, E283K

[1] = system: other Kv channels (hKv1.1-1.5, rKv2.1, hKv3.1-3.4, mKv4.1, hKv7.2 and hERG); details: n = 3-4
rKv4.2 M279A = target: T5, rKv4.2 M279A (Rattus norvegicus, UniProt Q63881, M279A); assay: cell-based; details: mean ± SEM
T5 construct: expressed in transfected cells; host or cells: HEK293T
T5 sequence (Q63881 1-630 M279A): T1 sequence (Q63881 1-630 N282A) with M279A, A282N

Compound	IC50 (rKv4.2 N282A) [µM]	IC50 (rKv4.2 D281K) [µM]	IC50 (hNav1.7) [µM]	IC50 (rKv4.2 E283K) [µM]	effect on the current traces of other Kv channels ([1]; 1 µM toxin)	IC50 (rKv4.2 M279A) [µM]	inhibition on other Kv channel subtypes ([1]; 10 µM)
CC(C)C[C@H](NC(=O)[C@H](Cc1ccc(O)cc1)NC(=O)[C@@H](NC(=O)[C@H](CCCCN)NC(=O)[C@@H]1CSSC[C@@H]2NC(=O)[C@H](CCC(=O)O)NC(=O)[C@H](CC(N)=O)NC(=O)[C@H](CCCCN)NC(=O)CNC(=O)[C@@H]3CCCN3C(=O)[C@H]([C@@H](C)O)NC(=O)[C@@H]3CSSC[C@H](NC(=O)[C@H](C)NC(=O)[C@H](Cc4ccc(O)cc4)NC(=O)[C@H](CC(N)=O)NC(=O)[C@@H]4CCCN4C(=O)[C@H](CSSC[C@H](NC(=O)CN)C(=O)N[C@@H](CCCCN)C(=O)NCC(=O)N[C@@H](Cc4ccccc4)C(=O)NCC(=O)N[C@@H](CC(=O)O)C(=O)N[C@@H](CO)C(=O)N3)NC2=O)C(=O)N[C@@H](CO)C(=O)N[C@@H](CO)C(=O)N[C@@H](CCCCN)C(=O)N[C@@H](Cc2c[nH]cn2)C(=O)N[C@@H](CCCCN)C(=O)N[C@@H](Cc2c[nH]c3ccccc23)C(=O)N1)C(C)C)C(N)=O [HNTX-III] (H-GCKGFGDSCTPGKNECCPNYACSSKHKWCKVYL-NH2; disulfide 2-17, 9-22, 16-29)	0.008 ± 0.002	5 ± 1	0.207 ± 0.0572	3 ± 1	no obvious or only minimal effect	1 ± 0.347	
CC[C@H](C)[C@H](NC(=O)[C@H](CCC(=O)O)NC(=O)[C@H](Cc1ccc(O)cc1)NC(=O)[C@H](CCCCN)NC(=O)[C@@H]1CSSC[C@@H]2NC(=O)[C@H](CCC(N)=O)NC(=O)[C@H](CC(=O)O)NC(=O)[C@H](CC(N)=O)NC(=O)[C@H](CO)NC(=O)[C@@H]3CCCN3C(=O)[C@H](CC(N)=O)NC(=O)[C@@H]3CSSC[C@H](NC(=O)[C@H](C(C)C)NC(=O)[C@H](CC(C)C)NC(=O)[C@H](CC(N)=O)NC(=O)[C@H](CO)NC(=O)[C@H](CO)NC(=O)[C@H](CCCCN)NC(=O)[C@H](CSSC[C@H](NC(=O)[C@@H](N)CCC(=O)O)C(=O)N[C@@H](CC(C)C)C(=O)NCC(=O)N[C@@H](Cc4ccccc4)C(=O)NCC(=O)N[C@@H](CCCCN)C(=O)NCC(=O)N3)NC2=O)C(=O)N[C@@H](CO)C(=O)N[C@@H](CCCNC(=N)N)C(=O)N[C@@H](CCCCN)C(=O)N[C@@H](Cc2c[nH]cn2)C(=O)N[C@@H](CCCNC(=N)N)C(=O)N[C@@H](Cc2c[nH]c3ccccc23)C(=O)N1)C(N)=O [HNTX-IV]	0.011 ± 0.002	0.191 ± 0.032	0.243 ± 0.0425	5.63 ± 1.28		0.167 ± 0.014	
CSCC[C@@H]1NC(=O)CNC(=O)[C@H](CCC(=O)O)NC(=O)[C@@H]2CSSC[C@H](NC(=O)[C@@H](N)Cc3ccc(O)cc3)C(=O)N[C@@H](CCC(N)=O)C(=O)N[C@@H](CCCCN)C(=O)N[C@@H](Cc3c[nH]c4ccccc34)C(=O)N[C@@H](CCSC)C(=O)N[C@@H](Cc3c[nH]c4ccccc34)C(=O)N[C@@H]([C@@H](C)O)C(=O)N[C@H]3CSSC[C@H](NC(=O)[C@H](C(C)C)NC1=O)C(=O)N[C@@H](CCCNC(=N)N)C(=O)N[C@@H](CC(C)C)C(=O)N[C@@H](Cc1c[nH]c4ccccc14)C(=O)N[C@H](C(=O)N[C@@H](CCCCN)C(=O)N[C@@H](CCCCN)C(=O)N[C@@H](CCCCN)C(=O)N[C@@H](CC(C)C)C(=O)N[C@@H](Cc1c[nH]c4ccccc14)C(=O)O)CSSC[C@H](NC(=O)[C@H](CCCCN)NC(=O)[C@H](CCCNC(=N)N)NC(=O)[C@H](CCC(=O)O)NC(=O)[C@H](CO)NC(=O)[C@H](CC(=O)O)NC3=O)C(=O)N2 [ProTx-II]	0.007 ± 0.001	0.027 ± 0.002		0.014 ± 0.006		0.017 ± 0.005	
CC[C@H](C)[C@@H]1NC(=O)[C@@H]2CSSC[C@@H]3NC(=O)[C@H](C(C)C)NC(=O)[C@H](CC(C)C)NC(=O)[C@H](CC(N)=O)NC(=O)[C@@H]4CCCN4C(=O)[C@H](CCCNC(=N)N)NC(=O)[C@H](CSSC[C@H](NC(=O)[C@@H](N)CC(=O)O)C(=O)N[C@@H](CC(C)C)C(=O)NCC(=O)N[C@@H](C)C(=O)N[C@@H](Cc4ccccc4)C(=O)N[C@@H](CCCNC(=N)N)C(=O)N[C@@H](CCCCN)C(=O)N2)NC(=O)[C@H](CSSC[C@@H](C(=O)N[C@@H](CCCCN)C(=O)N[C@@H](Cc2ccc(O)cc2)C(=O)N[C@H](C(=O)N[C@@H](Cc2ccccc2)C(N)=O)C(C)C)NC(=O)[C@H](Cc2c[nH]c4ccccc24)NC(=O)[C@H](CCCNC(=N)N)NC(=O)[C@H](Cc2c[nH]cn2)NC(=O)[C@H](C)NC(=O)[C@H](CO)NC(=O)[C@H](CO)NC3=O)NC(=O)[C@H](CCCCN)NC(=O)[C@H](CC(=O)O)NC(=O)[C@H](CC(N)=O)NC(=O)[C@H](CC(=O)O)NC(=O)[C@@H]2CCCN2C1=O [mGpTx1-SA] (H-DCLGAFRKCIPDNDKCCRPNLVCSSAHRWCKYVF-NH2; disulfide 2-17, 9-23, 16-30)			0.0403 ± 0.0032				low inhibition

Reference: publication PMC11558128 (Advanced Science, 2024)
